Reference: article PMC11792831, “Design and synthesis of doublecortin-like kinase 1 inhibitors and their bioactivity evaluation” (Journal of Enzyme Inhibition and Medicinal Chemistry, 2023)

How the values were obtained:
DCLK1 = target: T1, DCLK1 (Homo sapiens, UniProt O15075); assay: In vitro DCLK1 kinase activity assay (Eurofins); assay type: biochemical; details: for Selectivity (IC50 of DCLK1/IC50 of LRRK2): ratio of IC50 values; for Selectivity (DCLK1 activity/LRRK2 activity): ratio of remaining activities at 1 uM; for IC50: read-out: IC50 of DCLK1; for activity at 1 µM: remaining kinase activity at 1 uM compound, 100% = no inhibition, 0% = complete inhibition, read-out: DCLK1 activity (%)
T1 construct: purchased Eurofins (Belgium), contract assay service
T1 sequence (O15075 1-740): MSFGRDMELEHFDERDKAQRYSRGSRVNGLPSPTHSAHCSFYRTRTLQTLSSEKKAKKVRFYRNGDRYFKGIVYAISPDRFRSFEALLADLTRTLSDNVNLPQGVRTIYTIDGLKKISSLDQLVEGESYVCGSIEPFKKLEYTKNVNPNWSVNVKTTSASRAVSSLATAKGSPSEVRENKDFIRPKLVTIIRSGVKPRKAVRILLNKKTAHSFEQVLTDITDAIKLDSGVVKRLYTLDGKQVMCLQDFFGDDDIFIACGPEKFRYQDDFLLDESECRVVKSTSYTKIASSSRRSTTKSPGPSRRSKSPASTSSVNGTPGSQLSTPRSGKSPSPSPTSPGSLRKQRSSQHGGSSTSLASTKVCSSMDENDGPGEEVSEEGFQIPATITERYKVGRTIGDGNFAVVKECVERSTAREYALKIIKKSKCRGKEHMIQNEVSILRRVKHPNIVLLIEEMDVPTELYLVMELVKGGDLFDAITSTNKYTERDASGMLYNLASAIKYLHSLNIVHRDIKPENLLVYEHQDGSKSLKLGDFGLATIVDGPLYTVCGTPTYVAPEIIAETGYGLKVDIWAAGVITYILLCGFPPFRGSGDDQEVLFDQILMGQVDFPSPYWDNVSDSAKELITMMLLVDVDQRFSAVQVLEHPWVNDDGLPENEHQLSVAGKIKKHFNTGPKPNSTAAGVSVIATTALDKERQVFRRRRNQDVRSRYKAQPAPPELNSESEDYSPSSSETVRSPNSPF
Excerpt: (§1) Eurofins (Belgium) conducted in vitro DCLK1 and LRRK2 kinase activity assays. Compounds were sent as dry powders to Eurofins.

LRRK2 = target: T2, LRRK2 (Homo sapiens, UniProt Q5S007); assay: In vitro LRRK2 kinase activity assay (Eurofins); assay type: biochemical; details: for activity at 1 µM: remaining kinase activity at 1 uM compound, 100% = no inhibition, 0% = complete inhibition
T2 construct: purchased Eurofins (Belgium), contract assay service
Experimental: All compounds were tested for their kinase inhibitory activity at the concentration of 1 μM. […] Compounds with high activity or good selectivity were selected for further IC50 determination (Table 2).
as §1

HCT116 = assay: In vitro cytotoxicity / anti-proliferation assay (CCK8); assay type: cell-based; details: Homo sapiens, HCT-116, colorectal cancer cell line HCT116, 72 h
Experimental: To determine whether DCLK1 was required for tumour cell proliferation, the cytotoxicity of compounds was evaluated in colorectal cancer cell line HCT116. HCT116 was treated with compounds for 72 h, and the cell viability was determined using CCK8 assay (Figure 4). The antiproliferative effects of most compounds on HCT116 were correlated with their DCLK1 inhibitory activities, except for compounds D1 and D2. The poor cytotoxicity of compounds D1 and D2 may be attributed to their poor cell membrane permeability due to the negatively charged carboxylates. […] Overall, targeting DCLK1 inhibited the proliferation of HCT116, indicating the importance of DCLK1 in tumour growth.
A 96-well plate (3599, Corning, USA) was inoculated with 100 μL of complete medium containing 10 000 cells, and the experimental, control, and blank groups were established. Three parallel wells were used per concentration. After 10 h, media from the experimental and control groups were replaced with a complete medium containing the indicated concentration of the compound. Cells were incubated for 72 h before 10 μL of CCK8 reagent (CA1210, Solarbio, China) was added to each well and incubated for 1 h. The absorbance at 450 nm was measured with a microplate reader (Tecan, Switzerland). The IC50 was determined using GraphPad Prism 8 and nonlinear regression curve fitting.

T2 sequence (Q5S007 whole entry): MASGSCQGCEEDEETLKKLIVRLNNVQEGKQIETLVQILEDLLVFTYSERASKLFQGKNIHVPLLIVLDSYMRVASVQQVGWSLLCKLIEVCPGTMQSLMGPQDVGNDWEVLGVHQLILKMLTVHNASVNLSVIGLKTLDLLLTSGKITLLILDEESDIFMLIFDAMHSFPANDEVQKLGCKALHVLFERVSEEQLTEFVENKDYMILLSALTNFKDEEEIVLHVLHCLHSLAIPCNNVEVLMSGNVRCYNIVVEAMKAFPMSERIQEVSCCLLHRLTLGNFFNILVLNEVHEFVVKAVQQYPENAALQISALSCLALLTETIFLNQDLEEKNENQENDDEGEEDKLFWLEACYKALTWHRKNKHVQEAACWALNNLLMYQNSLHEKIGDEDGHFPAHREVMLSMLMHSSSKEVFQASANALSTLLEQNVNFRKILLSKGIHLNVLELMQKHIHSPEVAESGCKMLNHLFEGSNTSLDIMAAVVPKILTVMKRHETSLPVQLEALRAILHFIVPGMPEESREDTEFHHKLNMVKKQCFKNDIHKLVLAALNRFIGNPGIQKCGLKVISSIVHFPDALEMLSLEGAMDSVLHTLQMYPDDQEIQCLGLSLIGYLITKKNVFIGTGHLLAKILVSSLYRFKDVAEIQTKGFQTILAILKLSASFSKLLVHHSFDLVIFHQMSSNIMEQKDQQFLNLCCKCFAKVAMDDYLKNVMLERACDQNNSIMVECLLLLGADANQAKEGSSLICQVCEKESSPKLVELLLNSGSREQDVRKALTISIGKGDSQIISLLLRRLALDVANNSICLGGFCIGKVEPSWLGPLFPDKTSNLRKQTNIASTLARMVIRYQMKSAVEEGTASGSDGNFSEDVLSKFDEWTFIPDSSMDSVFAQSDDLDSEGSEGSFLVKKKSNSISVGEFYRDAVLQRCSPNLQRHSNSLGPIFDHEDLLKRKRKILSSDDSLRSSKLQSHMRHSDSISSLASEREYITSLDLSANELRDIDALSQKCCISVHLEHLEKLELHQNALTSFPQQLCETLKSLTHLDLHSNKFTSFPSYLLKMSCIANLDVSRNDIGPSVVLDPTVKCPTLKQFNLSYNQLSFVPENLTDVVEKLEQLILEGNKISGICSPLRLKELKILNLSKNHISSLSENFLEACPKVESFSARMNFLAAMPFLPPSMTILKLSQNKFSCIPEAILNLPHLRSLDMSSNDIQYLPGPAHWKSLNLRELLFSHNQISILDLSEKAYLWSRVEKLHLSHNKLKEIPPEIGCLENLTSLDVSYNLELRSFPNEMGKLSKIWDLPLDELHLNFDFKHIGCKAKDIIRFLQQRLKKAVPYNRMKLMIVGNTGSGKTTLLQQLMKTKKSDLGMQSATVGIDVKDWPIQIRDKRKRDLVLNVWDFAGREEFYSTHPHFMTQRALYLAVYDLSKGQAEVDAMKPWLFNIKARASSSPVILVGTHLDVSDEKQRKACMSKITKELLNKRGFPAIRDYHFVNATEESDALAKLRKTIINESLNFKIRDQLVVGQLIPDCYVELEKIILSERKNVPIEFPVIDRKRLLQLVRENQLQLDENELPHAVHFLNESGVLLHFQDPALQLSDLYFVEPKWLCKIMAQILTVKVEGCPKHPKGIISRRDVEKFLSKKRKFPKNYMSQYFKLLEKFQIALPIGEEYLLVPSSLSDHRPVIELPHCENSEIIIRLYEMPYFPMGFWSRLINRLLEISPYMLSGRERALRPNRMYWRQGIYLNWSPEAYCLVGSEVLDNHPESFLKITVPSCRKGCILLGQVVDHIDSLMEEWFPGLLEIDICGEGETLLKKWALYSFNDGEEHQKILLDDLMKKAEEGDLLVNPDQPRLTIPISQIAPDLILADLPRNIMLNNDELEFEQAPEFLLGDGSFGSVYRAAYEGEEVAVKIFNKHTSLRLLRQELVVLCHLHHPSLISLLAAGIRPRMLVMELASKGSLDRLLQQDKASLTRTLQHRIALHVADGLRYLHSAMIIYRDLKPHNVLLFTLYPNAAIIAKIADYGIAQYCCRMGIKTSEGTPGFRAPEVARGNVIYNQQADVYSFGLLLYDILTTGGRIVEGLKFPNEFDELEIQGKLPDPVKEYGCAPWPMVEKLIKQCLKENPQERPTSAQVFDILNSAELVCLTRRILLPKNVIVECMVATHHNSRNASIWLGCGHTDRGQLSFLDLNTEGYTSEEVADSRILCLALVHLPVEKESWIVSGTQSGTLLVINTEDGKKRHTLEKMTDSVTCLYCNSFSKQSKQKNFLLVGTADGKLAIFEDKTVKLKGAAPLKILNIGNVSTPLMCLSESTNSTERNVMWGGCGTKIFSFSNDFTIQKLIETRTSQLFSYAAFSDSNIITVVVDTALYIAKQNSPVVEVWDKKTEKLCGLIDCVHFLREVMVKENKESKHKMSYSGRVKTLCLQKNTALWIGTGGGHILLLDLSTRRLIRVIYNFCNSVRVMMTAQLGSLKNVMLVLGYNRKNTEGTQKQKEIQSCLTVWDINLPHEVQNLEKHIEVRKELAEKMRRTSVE

Row | Selectivity (IC50 of DCLK1/IC50 of LRRK2) (DCLK1) | Selectivity (DCLK1 activity/LRRK2 activity) (DCLK1) | IC50 (DCLK1) [µM] | activity at 1 µM (DCLK1) [%] | IC50 (LRRK2) [µM] | activity at 1 µM (LRRK2) [%] | melting point [°C] | SMILES | IC50 (HCT116) [µM]
1 | 0.18 | 0.36 | 0.04 | 8 | 0.228 | 22 | 159 to 160 | COc1cc(NC(=O)CCCCCSC(C)=O)ccc1Nc1ncc2c(n1)N(C)c1ccccc1C(=O)N2C [Compound D8, S-(6-((4-((5,11-dimethyl-6-oxo-6,11-dihydro-5H-benzo[e]pyrimido[5,4-b][1,4]diazepin-2-yl)amino)-3-methoxyphenyl)amino)-6-oxohexyl) ethanethioate] | 11.5
2 | <0.34 | 0.34 | 0.338 | 17 | > 1 | 50 | 174 to 175 | CCOc1cc(N2CCC(O)CC2)ccc1Nc1ncc2c(n1)N(C)c1cccc(F)c1C(=O)N2C [Compound A9, 2-((2-Ethoxy-4-(4-hydroxypiperidin-1-yl)phenyl)amino)-7-fluoro-5,11-dimethyl-5,11-dihydro-6H-benzo[e]pyrimido[5,4-b][1,4]diazepin-6-one] | 20.5
3 | 0.38 | 0.61 | 0.1 | 11 | 0.266 | 18 | 166 to 167 | COc1cc(N2CCCCC2)ccc1Nc1ncc2c(n1)N(C)c1ccccc1C(=O)N2C [Compound D11, 2-((2-Methoxy-4-(piperidin-1-yl)phenyl)amino)-5,11-dimethyl-5,11-dihydro-6H-benzo[e]pyrimido[5,4-b][1,4]diazepin-6-one] | 11.5
